For data set [1] the following is noted: patients taking atorvastatin; cited from earlier work.
The next data set has as its system human myocytes. The conditions noted are these: in vitro; cited from earlier work.
The conditions of data set [2]: for AUC(0-inf) / half-life / Tmax / Cmax: human, plasma, oral; for AUC(0-inf): AUC0–∞; for AUC(0-inf) / Tmax / Cmax: median (IQR); for half-life: harmonic mean ± SD; for Cmax: atorvastatin + clarithromycin 500 mg twice/day.
The test system of data set [3] is CYP3A. Particulars: cited from earlier work.
Data set [4] in a line: Plasma clarithromycin partial AUC in the atorvastatin plus clarithromycin phase. The format is in vivo. Particulars: human, oral, 500 mg, Partial AUC of clarithromycin (hrs 2–10), clarithromycin 500 mg twice/day, day 4, mean ± SD.
The test system of data set [5] is CYP3A. Particulars: classification by the United States Food and Drug Administration; cited from earlier work.
Where [6] appears, read: 20 mg, CYP3A5 expressors (n=10), atorvastatin only.
Setting [7] is: 20 mg, CYP3A5 nonexpressors (n=13), atorvastatin only.
The mark [8] stands for this setting: CYP3A5 expressors (n=10), atorvastatin + clarithromycin.
Setting [9] is: CYP3A5 nonexpressors (n=13), atorvastatin + clarithromycin.

Where two headings read alike, the source gives them in different places.

For the molecule `CC(C)c1c(C(=O)Nc2ccccc2)c(-c2ccccc2)c(-c2ccc(F)cc2)n1CC[C@@H](O)C[C@@H](O)CC(=O)O` [atorvastatin acid, atorvastatin], the “Patients experiencing muscle-related adverse effects” value in data set [1] is 3–8%.
As for `CC(C)c1c(C(=O)Nc2ccccc2)c(-c2ccccc2)c(-c2ccc(F)cc2)n1CC[C@@H]1C[C@@H](O)CC(=O)O1` [atorvastatin lactone], the “Toxicity to human myocytes relative to the acid form” value in the data set on human myocytes is given as “more toxic”. Moreover, the “AUC0–∞ higher in nonexpressors than in expressors” value in data set [2] (atorvastatin-only phase, p=0.038) is reported as 36%. The AUC(0-inf) in data set [2] (setting [6]) worked out at 0.0349 µg·h/mL; in data set [2] (setting [7]), 0.0476 µg·h/mL; in data set [2] (setting [8]) it was 0.11 µg·h/mL; in data set [2] (setting [9]), 0.127 µg·h/mL. Besides, the half-life in data set [2] (setting [6]) is 10.9 ± 4.5 h; in data set [2] (setting [7]), 13.6 ± 5.2 h; in data set [2] (setting [8]), 19.3 ± 5.4 h; in data set [2] (setting [9]), 19.2 ± 5.2 h. The values for the Tmax in data set [2] (setting [6]), in data set [2] (setting [7]) and in data set [2] (setting [8]) were 2 h, 1 h and 5 h, respectively. Also, the Cmax in data set [2] (CYP3A5 expressors (n=10)) and in data set [2] (CYP3A5 nonexpressors (n=13)) was 4.2 ng/mL throughout. Moreover, in the data set on CYP3A [3], the “Affinity for CYP3A relative to atorvastatin acid” value is on record as “higher affinity”.
In the case of `CC[C@H]1OC(=O)[C@H](C)[C@@H](O[C@H]2C[C@@](C)(OC)[C@@H](O)[C@H](C)O2)[C@H](C)[C@@H](O[C@@H]2O[C@H](C)C[C@H](N(C)C)[C@H]2O)[C@](C)(OC)C[C@@H](C)C(=O)[C@H](C)[C@@H](O)[C@]1(C)O` [clarithromycin], the AUC in data set [4] (CYP3A5 expressors) turned out to be 17700 µg·h/mL; in data set [4] (CYP3A5 nonexpressors), 21900 µg·h/mL. In the data set on CYP3A [5], the CYP3A inhibitor classification result is reported as “strong CYP3A inhibitor”.

(Values after PMC3712822 (Pharmacotherapy, 2011).)
